The compounds below were run against T1, human progesterone receptor-B (Homo sapiens, UniProt P06401) (assay: Progesterone receptor-B transactivation assay, progestagenic (agonist) activity, CHO-PRB-pMMTV-LUC 1E2-A2 cells). Conditions: not given.
T1 construct: expressed in transfected cells; host or cells: Chinese hamster ovary (CHO) cells, line CHO-PRB-pMMTV-LUC 1E2-A2
T1 sequence (P06401 1-933): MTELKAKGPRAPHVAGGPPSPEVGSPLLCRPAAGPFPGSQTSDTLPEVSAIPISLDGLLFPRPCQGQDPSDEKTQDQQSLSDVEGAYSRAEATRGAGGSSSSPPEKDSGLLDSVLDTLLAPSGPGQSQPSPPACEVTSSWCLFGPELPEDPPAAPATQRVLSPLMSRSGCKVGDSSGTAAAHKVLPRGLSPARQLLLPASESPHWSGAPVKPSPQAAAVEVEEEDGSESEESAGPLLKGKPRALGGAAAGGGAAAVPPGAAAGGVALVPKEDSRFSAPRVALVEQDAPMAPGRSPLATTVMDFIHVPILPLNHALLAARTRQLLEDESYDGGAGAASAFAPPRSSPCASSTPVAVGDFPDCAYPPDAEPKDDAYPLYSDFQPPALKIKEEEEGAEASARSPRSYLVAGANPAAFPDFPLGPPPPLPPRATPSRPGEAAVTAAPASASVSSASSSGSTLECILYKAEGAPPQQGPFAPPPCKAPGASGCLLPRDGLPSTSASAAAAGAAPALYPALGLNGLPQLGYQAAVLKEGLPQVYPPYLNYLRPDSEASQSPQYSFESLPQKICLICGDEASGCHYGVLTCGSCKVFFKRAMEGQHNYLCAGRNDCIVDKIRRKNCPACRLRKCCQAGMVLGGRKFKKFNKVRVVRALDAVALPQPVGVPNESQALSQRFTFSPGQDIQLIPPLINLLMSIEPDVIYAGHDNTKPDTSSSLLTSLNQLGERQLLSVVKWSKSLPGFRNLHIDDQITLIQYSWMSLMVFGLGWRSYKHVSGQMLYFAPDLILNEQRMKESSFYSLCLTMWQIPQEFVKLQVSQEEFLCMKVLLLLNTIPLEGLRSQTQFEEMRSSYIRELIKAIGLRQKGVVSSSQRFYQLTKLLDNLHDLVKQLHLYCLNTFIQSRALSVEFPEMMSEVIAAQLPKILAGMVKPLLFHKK
Assay type: cell-based
Description: (§1) The (anti-)progestagenic activity of a compound of the invention (EC 50 and intrinsic activity) was determined in an in vitro bioassay of Chinese hamster ovary (CHO) cells stably transfected with the human progesterone receptor-B expression plasmid and with a reporter plasmid in which the MMTV-promoter is linked to the luciferase reporter gene. […] The cells were cultured with charcoal-treated supplemented defined bovine calf serum from Hyclone (Utah, USA) in Dulbecco's Modified Eagles Medium/Nutrient Mixture F-12 (DMEM/HAM F12 in ratio 1:1) from Gibco (Paisley, UK).
CCCN[C@H]1CCCN2c3cc(Cl)ccc3Oc3ccccc3[C@H]12 (relative stereo) [Example 37, trans-N-Propyl-7-chloro-2,3,4,14b-tetrahydro-1H-dibenzo[b,f]pyrido[1,2-d][1,4]oxazepine-1-amine] showed an EC50 of 100 to 10000 nM. Compound N[C@H]1CCCN2c3cc(F)ccc3Oc3ccccc3[C@H]12 (relative stereo) [Example 1, trans-7-Fluoro-2,3,4,14b-tetrahydro-1H-dibenzo[b,f]pyrido[1,2-d][1,4]oxazepine-1-amine] has an EC50 of 100 to 10000 nM. For O=C(CF)N[C@H]1CCCN2c3cc(Cl)ccc3Oc3ccccc3[C@H]12 (relative stereo) [Example 11, trans-N-(7-Chloro-2,3,4,14b-tetrahydro-1H-dibenzo[b,f]pyrido[1,2-d][1,4]oxazepin-1-yl)-2-fluoroacetamide], the EC50 was 10 to 100 nM.

Same assay, conditions: CHO cells stably transfected with human progesterone receptor-B and MMTV-luciferase reporter; read-out: Progestagenic activity EC50
COCCN[C@H]1CCCN2c3cc(Cl)ccc3Oc3ccccc3[C@H]12 (relative stereo) [Example 48, trans-7-Chloro-2,3,4,14b-tetrahydro-N-(2-methoxyethyl)-1H-dibenzo[b,f]pyrido[1,2-d][1,4]oxazepine-1-amine] was tested, and the EC50 was 100 to 10000 nM. For O=C(N[C@H]1CCCN2c3cc(Cl)c(Br)cc3Oc3ccccc3[C@H]12)C(F)(F)F (relative stereo) [Example 39, trans-N-(8-Bromo-7-chloro-2,3,4,14b-tetrahydro-1H-dibenzo[b,f]pyrido[1,2-d][1,4]oxazepin-1-yl)-2,2,2-trifluoroacetamide], the EC50 was 100 to 10000 nM. For O=C(NC1CCCN2c3cc(Cl)ccc3Oc3ccccc3C12)C(F)F (stereo not drawn) [13 (1S14bR isomer)], the EC50 was < 10 nM. Compound CC(=S)N[C@H]1CCCN2c3cc(Cl)ccc3Oc3ccccc3[C@H]12 (relative stereo) [Example 21] has an EC50 of 10 to 100 nM. With O=C(N[C@H]1CCCN2c3c(ccc(Cl)c3Cl)Oc3ccccc3[C@H]12)C(F)(F)F (relative stereo) [Example 38B, trans-N-(6,7-Dichloro-2,3,4,14b-tetrahydro-1H-dibenzo[b,f]pyrido[1,2-d][1,4]oxazepin-1-yl)-2,2,2-trifluoroacetamide] the EC50 was < 10 nM. Compound NCC(=S)N[C@H]1CCCN2c3cc(Cl)ccc3Oc3ccccc3[C@H]12 (relative stereo) [Example 27] has an EC50 of 100 to 10000 nM. FCC(=S)N[C@H]1CCCN2c3cc(Cl)ccc3Oc3ccccc3[C@H]12 [Example 22] was tested, and the EC50 was < 10 nM. O=C(N[C@H]1CCCN2c3cc(Cl)ccc3Oc3cc(F)ccc3[C@H]12)C(F)(F)F (relative stereo) [Example 74, trans-N-(7-Chloro-12-fluoro-2,3,4,14b-tetrahydro-1H-dibenzo[b,f]pyrido[1,2-d][1,4]oxazepin-1-yl)-2,2,2-trifluoroacetamide] gave an EC50 of 10 to 100 nM. FC(F)(F)C(=S)N[C@H]1CCCN2c3cc(Cl)ccc3Oc3ccccc3[C@H]12 (relative stereo) [Example 19] was tested, and the EC50 was < 10 nM. In the case of FC(F)C(=S)N[C@H]1CCCN2c3cc(Cl)ccc3Oc3ccccc3[C@H]12 (relative stereo) [Example 23], the EC50 is reported as < 10 nM. N[C@H]1CCCN2c3cc(Cl)ccc3Oc3ccccc3[C@H]12 (relative stereo) [Example 3, trans-7-Chloro-2,3,4,14b-tetrahydro-1H-dibenzo[b,f]pyrido[1,2-d][1,4]oxazepine-1-amine] showed an EC50 of 100 to 10000 nM. For CN(C(=S)C(F)(F)F)C1CCCN2c3cc(Cl)ccc3Oc3ccccc3C12 (stereo not drawn) [Example 24], the EC50 was 10 to 100 nM. In the case of O=C(N[C@H]1CCCN2c3cc(Cl)ccc3Sc3ccccc3[C@H]12)C(F)(F)F (relative stereo) [Example 6, trans-2,2,2-Trifluoro-N-(7-chloro-2,3,4,14b-tetrahydro-1H-dibenzo[b,f]pyrido[1,2-d][1,4]thiazepin-1-yl)acetamide], the EC50 is reported as < 10 nM. With CC(=O)N[C@H]1CCCN2c3c(ccc(Cl)c3Cl)Oc3ccccc3[C@H]12 (relative stereo) [Example 47, trans-N-(6,7-Dichloro-2,3,4,14b-tetrahydro-1H-dibenzo[b,f]pyrido[1,2-d][1,4]oxazepin-1-yl)acetamide] the EC50 was < 10 nM. C=Cc1cccc2c1N1CCC[C@H](NC(=O)C(F)(F)F)[C@H]1c1ccccc1O2 (relative stereo) [Example 54, trans-N-(6-Ethenyl-2,3,4,14b-tetrahydro-1H-dibenzo[b,f]pyrido[1,2-d][1,4]oxazepin-1-yl)-2,2,2-trifluoroacetamide] was tested, and the EC50 was < 10 nM. For O=C(N[C@H]1CCCN2c3cc(Cl)ccc3Oc3cc(F)c(F)cc3[C@H]12)C(F)(F)F (relative stereo) [Example 75, trans-N-(7-Chloro-12,13-difluoro-2,3,4,14b-tetrahydro-1H-dibenzo[b,f]pyrido[1,2-d][1,4]oxazepin-1-yl)-2,2,2-trifluoroacetamide], the EC50 was < 10 nM. With CN1c2ccccc2[C@@H]2[C@@H](NC(=O)C(F)(F)F)CCCN2c2cc(Cl)ccc21 (relative stereo) [Example 76, trans-N-(7-Chloro-1,2,3,4,10,14b-hexahydro-10-methyl-dibenzo[b,f]pyrido[1,2-d][1,4]diazepin-1-yl)-2,2,2-trifluoroacetamide] the EC50 was < 10 nM. In the case of C=Cc1ccc2c(c1)N1CCC[C@H](NC(=O)C(F)(F)F)[C@H]1c1ccccc1O2 (relative stereo) [Example 64, trans-N-(7-Ethenyl-2,3,4,14b-tetrahydro-1H-dibenzo[b,f]pyrido[1,2-d][1,4]oxazepin-1-yl)-2,2,2-trifluoroacetamide], the EC50 is reported as 100 to 10000 nM. With Cc1ccc2c(c1)Oc1ccc(Cl)cc1N1CCC[C@H](NC(=O)C(F)(F)F)[C@@H]21 (relative stereo) [Example 70, trans-N-(7-Chloro-2,3,4,14b-tetrahydro12-methyl-1H-dibenzo[b,f]pyrido[1,2-d][1,4]oxazepin-1-yl)-2,2,2-trifluoroacetamide] the EC50 was 10 to 100 nM. With O=C(N[C@H]1CCCN2c3cc(Cl)ccc3Oc3cc(Br)ccc3[C@H]12)C(F)(F)F (relative stereo) [Example 68, trans-N-(12-Bromo-7-chloro-2,3,4,14b-tetrahydro-1H-dibenzo[b,f]pyrido[1,2-d][1,4]oxazepin-1-yl)-2,2,2-trifluoroacetamide] the EC50 was 10 to 100 nM. In the case of O=C(CCl)NC1CCCN2c3cc(Cl)ccc3Oc3ccccc3C12 (stereo not drawn) [Example 14], the EC50 is reported as 100 to 10000 nM. With FC(F)(F)C(=S)NC1CCCN2c3cc(Cl)ccc3Cc3ccccc3C12 (stereo not drawn) [Example 20] the EC50 was < 10 nM. In the case of CC(C)(C)OC(=O)Nc1cc2c(cc1Cl)N1CCC[C@H](NC(=O)C(F)(F)F)[C@H]1c1ccccc1O2 (relative stereo) [Example 46, trans-N-(7-Chloro-2,3,4,14b-tetrahydro-1-(2,2,2-trifluoroacetylamino)1H-dibenzo[b,f]pyrido[1,2-d][1,4]oxazepin-8-yl)carbamic Acid 1,1-dimethylethyl Ester], the EC50 is reported as 10 to 100 nM. For C=Cc1cc(F)cc2c1N1CCC[C@H](NC(=O)C(F)(F)F)[C@H]1c1ccccc1O2 (relative stereo) [Example 59, trans-N-(6-Ethenyl-8-fluoro-2,3,4,14b-tetrahydro-1H-dibenzo[b,f]pyrido[1,2-d][1,4]-oxazepin-1-yl)-2,2,2-trifluoroacetamide], the EC50 was < 10 nM. In the case of S=CN[C@H]1CCCN2c3cc(Cl)ccc3Oc3ccccc3[C@H]12 (relative stereo) [Example 18, trans-N-(7-Chloro-2,3,4,14b-tetrahydro-1H-dibenzo[b,f]pyrido[1,2-d][1,4]oxazepin-1-yl)methanethioamide], the EC50 is reported as 100 to 10000 nM.

What follows are compounds tested against T1, human progesterone receptor-B (assay: Progesterone receptor-B transactivation assay, antiprogestagenic activity (inhibition of luciferase transactivation induced by Org 2058)). Conditions: in the presence of 1 nM (16α)-16-ethyl-21-hydroxy-19-norpregn-4-ene-3,20-dione (Org 2058); read-out: Anti-progestagenic activity EC50.
Assay type: cell-based
Description: as §1
COCCN[C@H]1CCCN2c3cc(Cl)ccc3Oc3ccccc3[C@H]12 (relative stereo) [Example 48, trans-7-Chloro-2,3,4,14b-tetrahydro-N-(2-methoxyethyl)-1H-dibenzo[b,f]pyrido[1,2-d][1,4]oxazepine-1-amine] was tested, and the EC50 was 10 to 100 nM. O=C(N[C@H]1CCCN2c3cc(Cl)c(Br)cc3Oc3ccccc3[C@H]12)C(F)(F)F (relative stereo) [Example 39, trans-N-(8-Bromo-7-chloro-2,3,4,14b-tetrahydro-1H-dibenzo[b,f]pyrido[1,2-d][1,4]oxazepin-1-yl)-2,2,2-trifluoroacetamide] gave an EC50 of 100 to 10000 nM. CC(C)CNC(=S)N[C@H]1CCCN2c3cc(Cl)ccc3Oc3ccccc3[C@H]12 (relative stereo) [Example 32, trans-N-(7-Chloro-2,3,4,14b-tetrahydro-1H-dibenzo[b,f]pyrido[1,2-d][1,4]oxazepin-1-yl)-N′-(2-methylpropyl)thiourea] gave an EC50 of 100 to 10000 nM. For O=C(NC1CCCN2c3cc(Cl)ccc3Oc3ccccc3C12)C(F)F (stereo not drawn) [13 (1S14bR isomer)], the EC50 was < 10 nM. Work on FCC(=S)NC1CCCN2c3cc(Cl)ccc3Oc3ccccc3C12 [22 (1S,14bR isomer)] yielded an EC50 of 10 to 100 nM. In the case of S=C(NC1CCCCC1)N[C@H]1CCCN2c3cc(Cl)ccc3Oc3ccccc3[C@H]12 (relative stereo) [Example 33], the EC50 is reported as 100 to 10000 nM. CC(=S)N[C@H]1CCCN2c3cc(Cl)ccc3Oc3ccccc3[C@H]12 (relative stereo) [Example 21] gave an EC50 of 100 to 10000 nM. CC(C)(C)NC(=S)NC1CCCN2c3cc(Cl)ccc3Oc3ccccc3C12 (stereo not drawn) [Example 35] gave an EC50 of 100 to 10000 nM.

Source: patent US7737136B2 (N.V. Organon, priority 2002, dated 2010)
